Drawing on the supplement of paper PMC10307832, this text covers relative viability for 5 cell lines.

Common to all, as to assay: relative viability (nuclei count vs DMSO), 5 days (fraction); higher = more cells survive
Compound in assay [1]: C[C@H]([C@@H](C(=O)N)NC(=O)[C@@H]1CSSC[C@@H](C(=O)N[C@H](C(=O)N[C@@H](C(=O)N[C@H](C(=O)N1)CCCCN)CC2=CNC3=CC=CC=C32)CC4=CC=C(C=C4)O)NC(=O)[C@@H](CC5=CC=CC=C5)N)O [CAP-232] + CC(C)C[C@H](NC(=O)[C@H](Cc1ccccc1)NC(=O)c1cnccn1)B(O)O [Bortezomib] (partner 0.002 µM)
The essentials: (§1)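 Values are medians from duplicate plates. Each reflects relative viability, defined as the nuclei count of treated wells over that of vehicle wells. Lung cancer cell lines in 1536-well plates were pin-tool dosed one day after seeding with one drug alone or with a fixed anchor-drug dose plus five library-drug doses (not always all listed) in √10 steps, then fixed, stained and imaged at 4× after 5 days.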

Compound in assay [2]: C[C@H]([C@@H](C(=O)N)NC(=O)[C@@H]1CSSC[C@@H](C(=O)N[C@H](C(=O)N[C@@H](C(=O)N[C@H](C(=O)N1)CCCCN)CC2=CNC3=CC=CC=C32)CC4=CC=C(C=C4)O)NC(=O)[C@@H](CC5=CC=CC=C5)N)O [CAP-232] + C[C@@H](Oc1cc(-c2cnn(C3CCNCC3)c2)cnc1N)c1c(Cl)ccc(F)c1Cl [Crizotinib] (partner 1 µM)
A digest of the protocol: as §1

Compound in assay [3]: C[C@H]([C@@H](C(=O)N)NC(=O)[C@@H]1CSSC[C@@H](C(=O)N[C@H](C(=O)N[C@@H](C(=O)N[C@H](C(=O)N1)CCCCN)CC2=CNC3=CC=CC=C32)CC4=CC=C(C=C4)O)NC(=O)[C@@H](CC5=CC=CC=C5)N)O [CAP-232] + COc1cccc2cc(-c3nc([C@H]4CC[C@H](C(=O)O)CC4)n4ncnc(N)c34)[nH]c12 [OSI-027] (partner 0.5 µM)
A digest of the protocol: as §1

Compound in assay [4]: C[C@H]([C@@H](C(=O)N)NC(=O)[C@@H]1CSSC[C@@H](C(=O)N[C@H](C(=O)N[C@@H](C(=O)N[C@H](C(=O)N1)CCCCN)CC2=CNC3=CC=CC=C32)CC4=CC=C(C=C4)O)NC(=O)[C@@H](CC5=CC=CC=C5)N)O [CAP-232] + Nc1nc2[nH]cc(CCc3ccc(C(=O)N[C@@H](CCC(=O)O)C(=O)O)cc3)c2c(=O)[nH]1 [Pemetrexed] (partner 0.2 µM)
A digest of the protocol:
as §1

Compound in assay [5]: C[C@H]([C@@H](C(=O)N)NC(=O)[C@@H]1CSSC[C@@H](C(=O)N[C@H](C(=O)N[C@@H](C(=O)N[C@H](C(=O)N1)CCCCN)CC2=CNC3=CC=CC=C32)CC4=CC=C(C=C4)O)NC(=O)[C@@H](CC5=CC=CC=C5)N)O [CAP-232] + Nc1ncn([C@H]2C[C@H](O)[C@@H](CO)O2)c(=O)n1 [Decitabine] (partner 2 µM)
The essentials: as §1

Turning to IA-LM, the relative viability in assay [1] (first compound 0.4 µM) turned out to be 0.861; in assay [1] (first compound 1.265 µM), 0.656; in assay [1] (first compound 4 µM) it was 0.698; in assay [1] (first compound 12.65 µM), 0.236; in assay [2] (first compound 0.4 µM), 0.852; in assay [2] (first compound 1.265 µM), 0.928. For the same cell line, the relative viability turned out to be 0.892 in assay [2] (first compound 4 µM) and 0.242 in assay [2] (first compound 12.65 µM).
LK-2: the relative viability was 0.197 in assay [3] (first compound 0.4 µM); 0.18 in assay [3] (first compound 1.265 µM); 0.231 in assay [3] (first compound 4 µM); 0.175 in assay [3] (first compound 12.65 µM); 0.216 in assay [2] (first compound 0.4 µM); 0.251 in assay [2] (first compound 1.265 µM). In addition, the relative viability in assay [2] (first compound 4 µM) came out at 0.181; in assay [2] (first compound 12.65 µM), 0.199; in assay [4] (first compound 0.4 µM) it was 0.325; in assay [4] (first compound 1.265 µM), 0.284; in assay [4] (first compound 4 µM), 0.326; in assay [4] (first compound 12.65 µM), 0.294. The relative viability is 0.357 in assay [5] (first compound 0.4 µM), 0.234 in assay [5] (first compound 1.265 µM), 0.37 in assay [5] (first compound 4 µM) and 0.302 in assay [5] (first compound 12.65 µM).
Consider NCI-H358, for which the relative viability came out at 0.665 in assay [3] (first compound 0.4 µM); 0.864 in assay [3] (first compound 1.265 µM); 0.71 in assay [3] (first compound 4 µM); 0.664 in assay [3] (first compound 12.65 µM); 0.435 in assay [2] (first compound 0.4 µM); 0.426 in assay [2] (first compound 1.265 µM). The relative viability worked out at 0.473 in assay [2] (first compound 4 µM); 0.511 in assay [2] (first compound 12.65 µM); 0.151 in assay [4] (first compound 0.4 µM); 0.171 in assay [4] (first compound 1.265 µM); 0.187 in assay [4] (first compound 4 µM); 0.187 in assay [4] (first compound 12.65 µM). The relative viability turned out to be 0.184 in assay [5] (first compound 0.4 µM), 0.198 in assay [5] (first compound 1.265 µM), 0.229 in assay [5] (first compound 4 µM) and 0.18 in assay [5] (first compound 12.65 µM).
With NCI-H522, the relative viability in assay [3] (first compound 0.4 µM) is 0.72; in assay [3] (first compound 1.265 µM), 0.702; in assay [3] (first compound 4 µM) it was 0.806; in assay [3] (first compound 12.65 µM), 0.696; in assay [4] (first compound 0.4 µM) it was 0.921; in assay [4] (first compound 1.265 µM) it was 1.08. Also, the relative viability in assay [4] (first compound 4 µM) is 0.888; in assay [4] (first compound 12.65 µM), 0.974; in assay [5] (first compound 0.4 µM), 0.677; in assay [5] (first compound 1.265 µM) it was 0.623; in assay [5] (first compound 4 µM), 0.572; in assay [5] (first compound 12.65 µM), 0.658.
In the case of NCI-H727, the relative viability in assay [1] (first compound 1.265 µM) came out at 0.754; in assay [1] (first compound 4 µM), 1.11; in assay [1] (first compound 12.65 µM) it was 0.601; in assay [3] (first compound 0.4 µM), 0.593; in assay [3] (first compound 1.265 µM) it was 0.515; in assay [3] (first compound 4 µM) it was 0.795. Also, the relative viability in assay [3] (first compound 12.65 µM) worked out at 0.421; in assay [2] (first compound 1.265 µM) it was 0.757; in assay [2] (first compound 4 µM) it was 1.04; in assay [2] (first compound 12.65 µM), 0.82; in assay [5] (first compound 0.4 µM), 0.717; in assay [5] (first compound 1.265 µM), 0.831. Besides, the relative viability came out at 1.07 in assay [5] (first compound 4 µM) and 0.957 in assay [5] (first compound 12.65 µM).
